Measurements taken from the supplement of paper PMC10307832.

Experiments:
Assay in all cases: relative viability (nuclei count vs DMSO), 5 days (fraction); higher = more cells survive
[1] = compound: C1=CC=C(C(=C1)C2=CC=C(C=C2)C3=CSC4=C3C(=C(C(=O)N4)C#N)O)O
In short: (§1)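 Viability was read as treated-well nuclei divided by vehicle-well nuclei, using the median across plates. Lung cancer cell lines in 1536-well plates were kept overnight at 37 °C, pinned with five √10-spaced library-drug doses, and after 5 days were Hoechst-stained, imaged at 4× and counted in MetaXpress. Plates passed only with control CV below 25% and at least one doubling.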

Ricolinostat = compound: O=C(CCCCCCNC(=O)c1cnc(N(c2ccccc2)c2ccccc2)nc1)NO [Ricolinostat]
In short: as §1

TGX 221 = compound: CC1=CN2C(=O)C=C(N=C2C(=C1)C(C)NC3=CC=CC=C3)N4CCOCC4 [TGX 221]
In short: as §1

[2] = compound: C1=CC=C(C(=C1)C2=CC=C(C=C2)C3=CSC4=C3C(=C(C(=O)N4)C#N)O)O + CC(=O)Nc1cccc(-n2c(=O)n(C3CC3)c(=O)c3c(Nc4ccc(I)cc4F)n(C)c(=O)c(C)c32)c1 [Trametinib] (partner 0.02 µM)
In short: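 Each reported value is a median over duplicate plates. It expresses relative viability: treated-well nuclei count divided by vehicle-well nuclei count. Lung cancer cell lines in 1536-well plates were dosed by pin tool a day after seeding, alone with one drug or with a fixed anchor-drug dose plus five library-drug doses (not always all listed) in √10 steps, and nuclei were counted after 5 days.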

| Cell Line | relative viability ([1]; 0.08 µM) | relative viability ([1]; 0.253 µM) | relative viability ([1]; 0.8 µM) | relative viability ([1]; 2.53 µM) | relative viability ([1]; 8 µM) | relative viability (Ricolinostat; 0.08 µM) | relative viability (Ricolinostat; 0.253 µM) | relative viability (Ricolinostat; 0.8 µM) | relative viability (Ricolinostat; 2.53 µM) | relative viability (TGX 221; 0.08 µM) | relative viability (TGX 221; 0.253 µM) | relative viability (TGX 221; 0.8 µM) | relative viability (TGX 221; 2.53 µM) | relative viability (TGX 221; 8 µM) | relative viability ([2]; first compound 0.08 µM) | relative viability ([2]; first compound 0.253 µM) | relative viability ([2]; first compound 0.8 µM) | relative viability ([2]; first compound 2.53 µM) | relative viability ([2]; first compound 8 µM) |
| --- | --- | --- | --- | --- | --- | --- | --- | --- | --- | --- | --- | --- | --- | --- | --- | --- | --- | --- | --- |
| 201T | 0.945 | 0.964 | 0.932 | 0.94 | 1.02 | 0.876 | 0.978 | 1.02 | 0.93 | 0.911 | 0.959 | 0.979 | 0.865 | 0.876 | 0.734 | 0.744 | 0.737 | 0.734 | 0.832 |
| A549 | 0.908 | 1.19 | 1.02 | 0.977 | 0.675 | 0.792 | 0.945 | 0.926 | 0.971 | 0.954 | 0.884 | 0.953 | 0.927 | 0.867 |  |  |  |  |  |
| A-427 | 0.913 | 1.02 | 1.05 | 1.04 | 1 | 0.714 | 1.01 | 0.908 | 0.849 | 0.949 | 0.91 | 0.971 | 0.893 | 1 | 0.688 | 0.842 | 0.772 | 0.746 | 0.858 |
| ABC-1 | 0.854 | 0.866 | 1.01 | 0.874 | 0.881 | 1 | 0.996 | 0.846 | 0.88 | 0.827 | 0.924 | 0.979 | 1.02 | 0.922 |  |  |  |  |  |
| BEN | 0.883 | 0.951 | 0.966 | 0.999 | 0.811 | 0.743 | 0.966 | 0.754 | 0.694 | 0.914 | 0.856 | 0.918 | 0.899 | 0.937 | 1.13 | 1.08 | 1.01 | 0.967 | 1.02 |
| CAL-12T | 0.894 | 1.24 | 0.946 | 0.929 | 0.747 | 0.835 | 0.953 | 0.953 | 1.01 | 0.963 | 0.936 | 0.992 | 0.917 | 1.05 | 0.378 | 0.381 | 0.312 | 0.333 | 0.27 |
| COR-L23 | 1.13 | 1.07 | 1.1 | 1.13 | 0.704 | 0.942 | 0.895 | 0.844 | 0.707 | 1.01 | 1 | 0.97 | 1.02 | 0.989 | 0.669 | 0.716 | 0.76 | 0.552 | 0.521 |
| COR-L 105 | 0.851 | 0.96 | 0.96 | 0.708 | 0.903 | 0.775 | 0.92 | 0.837 | 1.09 | 1.01 | 0.875 | 0.859 | 0.944 | 0.823 | 0.466 | 0.46 | 0.482 | 0.444 | 0.408 |
| Calu-6 | 1.01 | 1.11 | 1.02 | 1.08 | 0.899 | 0.957 | 0.994 | 0.981 | 0.895 | 1.03 | 0.929 | 1.02 | 0.923 | 0.957 |  |  |  |  |  |
| ChaGo-K-1 | 0.785 | 1.08 | 1.01 | 1.01 | 0.809 | 0.936 | 1 | 0.921 | 0.832 | 0.904 | 0.938 | 0.987 | 0.958 | 1.04 | 0.94 | 0.905 | 0.935 | 1.01 | 0.857 |
| EBC-1 | 1.04 | 1.14 | 0.975 | 1.15 | 0.768 | 0.808 | 0.886 | 0.895 | 0.449 | 0.952 | 1.03 | 0.976 | 0.891 | 0.736 |  |  |  |  |  |
| EKVX | 0.961 | 1.13 | 0.971 | 0.967 | 0.851 | 0.764 | 0.918 | 0.907 | 0.964 | 0.865 | 0.888 | 0.907 | 0.838 | 0.855 | 0.358 | 0.436 | 0.462 | 0.378 | 0.318 |
| EMC-BAC-2 | 0.957 | 0.897 | 0.876 | 0.927 | 0.893 | 0.887 | 0.93 | 0.83 | 0.484 | 0.958 | 0.926 | 0.908 | 0.977 | 0.913 | 0.942 |  | 0.889 | 0.892 | 0.913 |
| EPLC-272H | 0.688 | 0.773 | 0.926 | 1 | 0.788 | 0.673 | 0.942 | 0.719 | 0.577 | 0.911 | 0.837 | 1.02 | 0.727 | 0.978 | 0.269 |  | 0.245 | 0.252 | 0.289 |
| H3255 | 0.995 | 1.09 | 0.882 | 1.01 | 0.858 | 0.809 | 0.911 | 0.838 | 0.783 | 0.946 | 0.917 | 0.93 | 0.872 | 1.01 | 0.57 | 0.676 |  | 0.782 | 0.526 |
| HARA | 0.768 | 1.98 | 0.999 | 0.751 | 0.856 | 0.878 | 1 | 0.866 | 0.567 | 0.997 | 0.947 | 0.964 | 0.942 | 1.05 | 0.689 | 0.705 | 0.959 | 0.659 | 0.554 |
| HCC-15 | 0.958 | 1.14 | 1.04 | 1.04 | 0.904 | 0.847 | 0.94 | 0.983 | 0.938 | 0.945 | 0.965 | 0.9 | 0.916 | 0.969 | 0.39 | 0.369 | 0.409 | 0.427 | 0.358 |
| HCC-44 | 1.03 | 1 | 0.997 | 0.956 | 0.991 | 1.01 | 0.966 | 0.962 | 0.77 | 0.991 | 1.03 | 1.03 | 0.99 | 1.03 | 1.13 | 1.15 | 1.13 | 0.937 | 0.927 |
